# Structures can show the parent of a compound that is named as a salt.
# Tested on: patients hospitalized for acute heart failure (AHF)
# Experiment: Echocardiographic parameters (tissue Doppler echocardiography), phase II trial of 24 h istaroxime infusion
# Format: in vivo, human
# Details: for A wave mean change from baseline / CI mean change from baseline / E wave mean change from baseline / E/A ratio mean change from baseline / E/e′ ratio mean change from baseline / EDV Index mean change from baseline / EDV mean change from baseline / ESV Index mean change from baseline / ESV mean change from baseline / IVC diameter mean change from baseline / LAA mean change from baseline / LAV mean change from baseline / LAVI mean change from baseline / LVEF mean change from baseline / PASP mean change from baseline / SVI mean change from baseline / S′ mean change from baseline / TAPSE mean change from baseline / e′ mean change from baseline: 0.5 μg/Kg/min; for E/e′ change from baseline to 24 h (primary endpoint): 0.5 μg/kg/min (cohort 1), mITT, hydrochloride
# Description: The measurement of one or more cardiac parameters disclosed herein can be measured by Echocardiography which may be performed on subjects according to international standards (see, for example, Lang R M et a I. J Am Soc Echocardiogr 2005; 18(12): 1440-63; Nagueh S F et al. Eur J Echocardiogr 2009; 10(2): 165-93; Evangelista A et a I. Eur J Echocardiogr 2008; 9(4):438-48).
# In some embodiments, cardiac parameters can be measured as follows: • 1. Cardiac dimension measures: • a. Left ventricle end diastolic diameter (EDD): measured with M-mode echocardiography at the level of mitral valve (MV) leaflets from parasternal long axis view (PLAX) (normal range [N R]: 42-59 mm males and 39-53 mm females); • b. Left ventricle end systolic diameter (ESD): measured with M-mode echocardiography at the level of mitral valve (MV) leaflets from PLAX (N R: 25-35 mm): • c. Left ventricle end diastolic volume (EDV): measured with M-mode echocardiography at the level of mitral valve (MV) leaflets from PLAX (N R: 67-155 mL males and 56-104 mL females); • d. Left ventricle end systolic volume (ESV): measured with M-mode echocardiography at the level of mitral valve (MV) leaflets from PLAX (N R: 22-58 mL males and 19-49 mL females); • e. Left atrium diameter (LAD): measured at end-ventricular systole with M-mode echocardiography from PLAX. (N R: 30-40 mm males and 27-38 mm females) • f. Left atrium area (LAA): measured from apical four chamber view (NR: £20 cm2); and • g. Left atrium volume (LAV): derived from area-length measured from apical four chamber view (N R: 18-58 mL males and 22-52 mL females). • 2. Left ventricle diastolic function parameters: • a. E wave: measured from mitral valve pulsed wave Doppler, is the peak velocity of early filling. […] A wave: measured from mitral valve pulsed wave Doppler is the peak velocity of late atrial filling. Not evaluable in subjects with AF: • c. E wave deceleration time (EDT): measured from mitral valve pulsed wave Doppler represent the slope of the descending part of E wave; • d. E/A ratio: determines the type of diastolic filling pattern (normal E/A=1-2 and EDT=150-200 ms, abnormal relaxation E/A<1 and EDT>240 ms, pseudonormal E/A=0.8-1.5: restrictive E/A^32 and EDT <160 ms). Not evaluable in subjects with AF; • e. Ea: measured with tissue Doppler method at the lateral and septal side of the mitral annulus from apical four chamber view is the early diastolic velocity. The value has been calculated as the average between Ea lateral and Ea septal. (NR310 cm/s) (see Nagueh S F et al. Eur J Echocardiogr. 2009:10(2):165-93); • f. Aa: measured with tissue Doppler method at the lateral and septal side of the mitral annulus from apical four chamber view is the late atrial diastolic velocity. The value has been calculated as the average between Aa lateral and Aa septal. Not evaluable in subjects with AF; and • g. E/Ea ratio: this is a derived measure from E and Ea value. This is highly correlated with left ventricle filling pressure and with prognosis in subjects with HF. (NR: <13) (see Nagueh S F et al. supra). • 3. Left ventricle systolic function parameters: • a. Left ventricle ejection fraction (LVEF): measured with Simpson biplane method according to international recommendations from apical four chamber view and apical two chamber view. (NR ^355%) (see Lang R M et al. J Am Soc Echocardiogr. 2005:18(12): 1440-63); and • b. Sa: measured with tissue Doppler method at the lateral and septal side of the mitral annulus from apical four chamber view. The value has been calculated as the average between Sa lateral and Sa septal. […] Overall cardiac contraction parameters: • a. Stroke volume (SV): is a derived measure obtained with the application of Bernoulli's formula using the dimension of left ventricle outflow tract (LVOT) as diameter and LVOT time velocity integral as velocity. (NR>60 mL/beat); • b. Cardiac output (CO): is derived by the multiplication of SV× heart rate (HR) (NR: >4 L/min); • c. […]
# [1] = 0.5 μg/kg/min, mean ± standard deviation
structure (smiles),measurement,setting,value
"C[C@]12CCC(=NOCCN)C[C@@H]1C(=O)C[C@@H]1[C@@H]2CC[C@]2(C)C(=O)CC[C@@H]12 [Istaroxime, (E,Z)-3-((2-aminoethoxy)imino)androstane-6,17-dione hydrochloride]",A wave mean change from baseline,6 hours,1.76 cm/s
same,CI mean change from baseline,6 hours,0.20 l/min/m^2
same,E wave mean change from baseline,6 hours,-4.35 cm/s
same,E/A ratio mean change from baseline,6 hours,−0.28
same,E/e′ ratio mean change from baseline,6 hours,−3.48
same,EDV Index mean change from baseline,6 hours,0.85 ml/m^2
same,EDV mean change from baseline,6 hours,1.47 mL
same,ESV Index mean change from baseline,6 hours,−2.54 ml/m^2
same,ESV mean change from baseline,6 hours,-4.89 mL
same,IVC diameter mean change from baseline,6 hours,−2.41 mm
same,LAA mean change from baseline,6 hours,−0.38 cm^2
same,LAV mean change from baseline,6 hours,0.05 mL
same,LAVI mean change from baseline,6 hours,−0.51 mL/m^2
same,LVEF mean change from baseline,6 hours,2.03%
same,PASP mean change from baseline,6 hours,−4.21 mmHg
same,SVI mean change from baseline,6 hours,5.66 ml/beat/m^2
same,S′ mean change from baseline,6 hours,0.63 cm/s
same,TAPSE mean change from baseline,6 hours,0.41 mm
same,e′ mean change from baseline,6 hours,0.63 cm/s
same,A wave mean change from baseline,24 hours,5.13 cm/s
same,CI mean change from baseline,24 hours,0.27 l/min/m^2
same,E wave mean change from baseline,24 hours,-8.14 cm/s
same,E/A ratio mean change from baseline,24 hours,−0.64
same,E/e′ ratio mean change from baseline,24 hours,−4.55
same,EDV Index mean change from baseline,24 hours,−0.20 ml/m^2
same,EDV mean change from baseline,24 hours,-0.71 mL
same,ESV Index mean change from baseline,24 hours,−3.78 ml/m^2
same,ESV mean change from baseline,24 hours,-7.11 mL
same,IVC diameter mean change from baseline,24 hours,−4.30 mm
same,LAA mean change from baseline,24 hours,−1.70 cm^2
same,LAV mean change from baseline,24 hours,-7.94 mL
same,LAVI mean change from baseline,24 hours,−4.32 mL/m^2
same,LVEF mean change from baseline,24 hours,3.03%
same,PASP mean change from baseline,24 hours,−10.89 mmHg
same,SVI mean change from baseline,24 hours,5.33 ml/beat/m^2
same,S′ mean change from baseline,24 hours,0.68 cm/s
same,TAPSE mean change from baseline,24 hours,0.73 mm
same,e′ mean change from baseline,24 hours,0.94 cm/s
same,A wave mean change from baseline,48 hours,-0.94 cm/s
same,CI mean change from baseline,48 hours,0.19 l/min/m^2
same,E wave mean change from baseline,48 hours,-5.21 cm/s
same,E/A ratio mean change from baseline,48 hours,−0.28
same,E/e′ ratio mean change from baseline,48 hours,−2.56
same,EDV Index mean change from baseline,48 hours,−0.07 ml/m^2
same,EDV mean change from baseline,48 hours,-0.59 mL
same,ESV Index mean change from baseline,48 hours,−1.19 ml/m^2
same,ESV mean change from baseline,48 hours,-2.57 mL
same,IVC diameter mean change from baseline,48 hours,−4.16 mm
same,LAA mean change from baseline,48 hours,−2.01 cm^2
same,LAV mean change from baseline,48 hours,-9.17 mL
same,LAVI mean change from baseline,48 hours,−5.01 mL/m^2
same,LVEF mean change from baseline,48 hours,1.19%
same,PASP mean change from baseline,48 hours,−11.18 mmHg
same,SVI mean change from baseline,48 hours,3.68 ml/beat/m^2
same,S′ mean change from baseline,48 hours,0.22 cm/s
same,TAPSE mean change from baseline,48 hours,−0.34 mm
same,e′ mean change from baseline,48 hours,0.32 cm/s
same,E/e′ change from baseline to 24 h (primary endpoint),mean ± standard deviation,−4.55 ± 4.75
same,E/e′ change from baseline to 24 h (primary endpoint),"mean ± standard deviation, listed as istaroxime",−4.55±4.75
same,E/A ratio change at 24 h,[1],−0.64 ± 0.79
same,LV ejection fraction change at 24 h,[1],3.03 ± 4.04%
same,LV end-diastolic volume index change at 24 h,[1],−0.20 ± 5.45 mL/m^2
same,LV end-systolic volume index change at 24 h,[1],−3.78 ± 6.76 mL/m^2
same,Left atrial area change at 24 h,[1],−1.70 ± 2.46 cm^2
same,Left atrial volume index change at 24 h,[1],−4.32 ± 7.28 mL/m^2
same,Stroke volume index change at 24 h,[1],5.33 ± 6.67 mL/beat/m^2
same,S′ change at 24 h,[1],0.68 ± 0.91 cm/s

# Source: patent US12697343B2, “Intravenous istaroxime for the treatment of acute heart failure” (Seismic Pharmaceuticals Operations LLC, priority 2021, dated 2026)
